Here are results for 17 compounds from US10927096B2, “Ester substituted ion channel blockers and methods for use” (Nocion Therapeutics, Inc., priority 2019, dated 2021).

The target of data set [1] is T1, NaV1.7 (Homo sapiens, UniProt Q15858).
T1 construct: expressed in transfected cells; host or cells: HEK293, tetracycline-inducible
In words: Whole cell patch clamp, external block of NaV1.7 current. It counts as cell-based. The note with it: % inhibition, compound in external solution, manual whole cell patch clamp, read-out: Nav1.7 Extracellular Inhibition; for inhibition at 10 µM: test concentration 10 μM; for inhibition at 1 µM: test concentration 1 μM; for inhibition at 30 µM: test concentration 30 μM; for inhibition at 3 µM: test concentration 3 μM; for inhibition at 100 µM: test concentration 100 μM. The procedure: (§1) NaV1.7 was expressed upon induction with tetracycline. Cells were cultured in DMEM containing 10% dialyzed Fetal Bovine Serum (VWR, Radnor, Pa.), 1% Glutamax (VWR, Radnor, Pa.), 1% Penicillin-Streptomycin (VWR, Radnor, Pa.), 100 mg/L Hygromycin (Thermo Fisher Scientific, Waltham, Mass. and 5 mg/L Blasticidin (Alfa Aesar, Haverhill, Mass.). Cells were grown and maintained at 37° C. in a humidified environment containing 10% C02 in air. Cells were detached from the culture flask for passage and harvested using 0.05% Trypsin-EDTA (Thermo Fisher Scientific, Waltham, Mass.). To induce NaV1.7, cells were induced with tetracycline (0.1-1 μg/mL, IBI Scientific, Peosta, Iowa) the day before recording and plated onto 24-well plates. Cells were washed with DPBS (VWR, Radnor, Pa.), trypsinized and then triturated five times in 10 mL of growth media to break apart cell aggregates. For one 24-well plate, 2 mL of cell suspension was mixed with 23 mL of fresh growth media and 0.1-1 μg/mL tetracycline added. 1 ml of mixed media with cells was then added to each well of a 24-well plate, with a 12 mm coverslip already placed in the bottom of the well. Cells were then incubated in 37° C. and 10% CO2 overnight.
(§2) The intracellular solution contained the following (in mM) CsCl 135, NaCl 10, EGTA 10, HEPES 10, MgCl2 2, adjusted to pH 7.2 with CsOH. The external solution was a normal Ringer solution containing (in mM) NaCl 155, HEPES 10, glucose 10, KCl 3.5, CaCl2 1.5, MgCl2 1 adjusted to pH 7.4 with NaOH. CsCl is from Alfa Aesar, Haverhill, Mass. All other chemicals are from Sigma-Aldrich, St. Louis, Mo. In order to test the degree of internal block by test compounds the compounds were dissolved in internal solution at the indicated test concentration. […] In order to test the degree of external block by test compounds the compounds were dissolved in external solution at the indicated test concentration.
(§3) 18-24 hours after cells were induced with tetracycline, coverslips were placed into a chamber filled with Normal Ringer solution at room temperature and the chamber placed on a microscope. Pipettes were pulled from borosilicate glass on a P97 puller (Sutter Instrument, Novato, Calif.) and polished with a MF-830 Microforge (Narishige International USA, Inc, Amityville, N.Y.) to have a resistance of 1.5-2.5 MΩ when filled with CsCl internal solution at room temperature. Healthy cells (those that are round and translucent with no visible blemishes) were chosen for seal formation. A seal was formed between the pipette and the cell, and a brief pulse of suction was used to “break in” and establish the whole-cell configuration. The membrane potential was held at −100 mV before the voltage protocol began. Only cells with series resistance between 1.5-5 MΩ were retained for analysis. The voltage protocol was as follows: Cells were held at −100 mV for 12 ms followed by a hyperpolarizing step to −105 mV for 12 ms to monitor the leak. Cells were then stepped back to −100 mV for 40 ms. Cells were then depolarized to −20 mV for 10 ms and then returned to −100 mV for 26 ms (The FIGURE).
Once the recording was started, the voltage protocol was run at 30 second intervals for 5 minutes to get a stable baseline. This is followed by 5 Hz stimulation of the same voltage protocol run until the end of experiment. […] The test compound is added for 5 minutes before washing out with normal Ringer's solution. Currents were recorded using PatchMaster software with Heka EPC10 (HEKA Electronics, Lambrecht, Germany). Only cells with inward current amplitudes at −20 mV between 400 pA and 4 nA were accepted. In addition, cells having leak currents greater than 10% of their current amplitudes were discarded.
(§4) The data was plotted using the Patchmaster software (HEKA Electronics, Lambrecht, Germany) and analyzed by plotting the minimum current during the voltage step to −20 mV (peak inward current) as a function of time. […]

The nature of data set [2]: PAMPA membrane permeability assay. Format: physicochemical. The note with it: pH 7.4 buffer, GIT lipid, 4 hours incubation. The protocol:
The PAMPA assay (pION, Inc., Woburn Mass.) was used to determine the ability of compounds of the invention to cross an artificial lipid membrane by passive diffusion. Test compounds were dissolved in DMSO (10 mM) and diluted 200-fold in buffer (pION Inc., pH 7.4) to provide 50 uM stock solutions. Buffer (150 μL) was added to a UV blank plate and stock solutions (150 μL) were transferred to a UV reference plate. The blank and reference spectrum were read using a spectrophotometer. Stock solutions (200 μL) were added to the donor plate of the PAMPA sandwich plate and an accept plate painted with GIT lipid (pION Inc, 5 μL) was placed on top. Buffer (200 μL) was added to the acceptor plate and the PAMPA sandwich plate was incubated for 4 hours. Aliquots (150 μL) from the acceptor plate were added to a UV plate and read as acceptor spectrum. Aliquots (150 μL) of the donor solutions were added to a UV analysis plate and read as donor spectrum. The permeability coefficient of test compounds was calculated using PAMPA Explorer™ software (version 3.5.0.4) based on the AUC of the reference plate, the donor plate, and the acceptor plate.
The PAMPA permeability results (10^−6 cm/s) of representative compounds are reported as “+” (<0.1 10^−6 cm/s), “++” (0.1-2.0 10^−6 cm/s), “+++” (2.0-10.010^−6 cm/s) or “++++” (>10.0 10^−6 cm/s).
(PAMPA measures passive passage across an artificial lipid membrane.)

The target of data set [3] is T1, NaV1.7. In words: Whole cell patch clamp, internal block of NaV1.7 current. It counts as cell-based. The note with it: % inhibition at 1 μM test concentration, compound in internal solution, manual whole cell patch clamp. The procedure:
as §1, §2, §3
Once the recording was started, the voltage protocol was run at 30 second intervals for 5 minutes to get a stable baseline. This was followed by four 30-second periods of 5 Hz stimulation of the same voltage protocol separated by 1 minute of rest which was then followed by 0.33 Hz stimulation after the last train. Currents were recorded using PatchMaster software with Heka EPC10 (HEKA Electronics, Lambrecht, Germany). Only cells with inward current amplitudes at −20 mV between 400 pA and 4 nA were accepted. In addition, cells having leak currents greater than 10% of their current amplitudes were discarded.
as §4
On the technique in general: The patch-clamp technique gives a direct electrical read-out from membranes.

T1 sequence (Q15858 whole entry): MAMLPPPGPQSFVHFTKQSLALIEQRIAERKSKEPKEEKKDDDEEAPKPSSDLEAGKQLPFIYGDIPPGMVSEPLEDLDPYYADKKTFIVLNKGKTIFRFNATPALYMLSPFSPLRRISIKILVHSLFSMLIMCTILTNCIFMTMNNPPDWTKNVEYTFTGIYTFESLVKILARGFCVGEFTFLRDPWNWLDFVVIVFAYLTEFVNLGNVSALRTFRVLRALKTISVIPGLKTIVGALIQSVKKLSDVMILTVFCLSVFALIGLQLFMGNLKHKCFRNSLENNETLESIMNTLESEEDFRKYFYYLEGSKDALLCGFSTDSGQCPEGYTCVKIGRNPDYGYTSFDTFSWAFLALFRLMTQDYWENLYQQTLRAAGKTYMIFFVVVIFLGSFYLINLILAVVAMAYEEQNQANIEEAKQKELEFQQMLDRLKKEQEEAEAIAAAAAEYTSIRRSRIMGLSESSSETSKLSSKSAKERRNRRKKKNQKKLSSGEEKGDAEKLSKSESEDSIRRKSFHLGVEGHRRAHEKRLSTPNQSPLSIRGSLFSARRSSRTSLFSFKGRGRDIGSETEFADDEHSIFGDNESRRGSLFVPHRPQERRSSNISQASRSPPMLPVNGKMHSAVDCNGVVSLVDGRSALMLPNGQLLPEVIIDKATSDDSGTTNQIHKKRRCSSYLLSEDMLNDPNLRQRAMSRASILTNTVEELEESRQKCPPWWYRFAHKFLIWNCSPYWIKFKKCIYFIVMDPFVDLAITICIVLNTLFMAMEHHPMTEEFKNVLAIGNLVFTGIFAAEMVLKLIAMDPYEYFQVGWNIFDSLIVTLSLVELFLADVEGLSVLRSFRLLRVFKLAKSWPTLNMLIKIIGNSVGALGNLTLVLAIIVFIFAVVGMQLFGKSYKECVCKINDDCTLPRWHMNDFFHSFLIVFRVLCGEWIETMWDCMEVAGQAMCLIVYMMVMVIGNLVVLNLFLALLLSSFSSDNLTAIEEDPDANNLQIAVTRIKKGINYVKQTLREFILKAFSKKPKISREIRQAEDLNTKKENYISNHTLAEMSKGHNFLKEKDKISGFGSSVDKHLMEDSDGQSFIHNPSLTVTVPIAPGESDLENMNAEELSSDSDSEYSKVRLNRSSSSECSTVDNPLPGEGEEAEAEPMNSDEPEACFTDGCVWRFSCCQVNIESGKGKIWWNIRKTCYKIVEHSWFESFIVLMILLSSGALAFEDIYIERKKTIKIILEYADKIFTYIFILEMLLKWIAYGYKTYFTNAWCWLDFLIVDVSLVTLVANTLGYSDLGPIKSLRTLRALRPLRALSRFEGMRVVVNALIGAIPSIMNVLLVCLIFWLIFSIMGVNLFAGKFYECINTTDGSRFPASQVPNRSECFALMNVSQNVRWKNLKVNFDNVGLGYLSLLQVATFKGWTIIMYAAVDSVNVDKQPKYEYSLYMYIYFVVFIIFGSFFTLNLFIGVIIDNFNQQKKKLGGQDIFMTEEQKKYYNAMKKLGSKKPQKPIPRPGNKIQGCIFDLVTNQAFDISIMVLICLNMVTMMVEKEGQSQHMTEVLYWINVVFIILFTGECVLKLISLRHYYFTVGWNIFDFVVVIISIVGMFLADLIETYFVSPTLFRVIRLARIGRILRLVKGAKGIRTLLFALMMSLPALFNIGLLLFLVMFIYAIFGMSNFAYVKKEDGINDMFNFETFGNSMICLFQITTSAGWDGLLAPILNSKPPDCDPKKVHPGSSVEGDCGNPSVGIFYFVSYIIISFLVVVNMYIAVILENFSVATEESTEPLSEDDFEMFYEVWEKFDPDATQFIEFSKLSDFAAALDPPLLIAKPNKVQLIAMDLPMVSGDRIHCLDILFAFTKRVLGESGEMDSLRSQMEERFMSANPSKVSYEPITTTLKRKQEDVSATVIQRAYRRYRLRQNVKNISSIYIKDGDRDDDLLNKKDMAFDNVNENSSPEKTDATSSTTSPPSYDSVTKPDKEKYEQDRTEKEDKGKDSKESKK

`CCOC(=O)c1cccc(C)c1NC(=O)C[n+]1cccc(-c2ccccc2)c1` [Compound 67A]: on NaV1.7 [1], the inhibition at 10 µM was under 40%.
As for `CCOC(=O)c1cccc(C)c1NC(=O)C[N+]1(Cc2ccccc2)CCCC1` [Compound 9A], the inhibition at 10 µM at NaV1.7 [1] is under 40%.
For `CCN(CC)C(=O)C1CCC[N+](CC(=O)Nc2c(C)cccc2C(=O)OC)(Cc2ccccc2)C1.O=C([O-])C(F)(F)F` (stereo not shown) [Compound 38], in data set [2], the “PAMPA (10^−6 cm/s)” value is “+ (<0.1 10^−6 cm/s)”. Moreover, the “NaV1.7 Intracellular Inhibition” value on NaV1.7 [3] is recorded as “++ (70-30%)”.
Regarding `CCOC(=O)C1CCC[N+](CC)(CC(=O)Nc2c(C)cccc2C(=O)OC)C1.[I-]` (stereo not shown) [Compound 24], the “PAMPA (10^−6 cm/s)” value in data set [2] was “+ (<0.1 10^−6 cm/s)”. Moreover, on NaV1.7 [3], the “NaV1.7 Intracellular Inhibition” value is on record as “++ (70-30%)”.
Regarding `CCOC(=O)c1cccc(C)c1NC(=O)C[N+]1(Cc2ccccc2)CCCCCC1` [Compound 2A], the inhibition at 1 µM at NaV1.7 [1] was under 40%.
`CCOC(=O)c1cccc(C)c1NC(=O)C[N+]1(Cc2ccccc2)CCCCCCC1.[Br-]` [Compound 10]: the “PAMPA (10^−6 cm/s)” value in data set [2] is listed as “+ (<0.1 10^−6 cm/s)”. At NaV1.7 [3], the “NaV1.7 Intracellular Inhibition” value is “+++ (90-70%)”.
Regarding `CCCN(CCC)C(=O)C1CCC[N+](CC(=O)Nc2c(C)cccc2C(=O)OC)(Cc2ccccc2)C1.[Br-]` (stereo not shown) [Compound 39], the “PAMPA (10^−6 cm/s)” value in data set [2] is reported as “+ (<0.1 10^−6 cm/s)”. In addition, the “NaV1.7 Intracellular Inhibition” value at NaV1.7 [3] is reported as “+ (<30%)”.
Regarding `CCOC(=O)c1cccc(C)c1NC(=O)C[N+]1(Cc2ccccc2)CCCCCCC1` [Compound 10A], the inhibition at 1 µM on NaV1.7 [1] was in the range of 40 to 70%.
For `CNC(=O)C[N+]1(CC(=O)Nc2c(C)cccc2C(=O)OC)CCCC(c2ccccc2)C1` (stereo not shown) [Compound 59A, 1-(2-((2-(methoxycarbonyl)-6-methylphenyl)amino)-2-oxoethyl)-1-(2-(methylamino)-2-oxoethyl)-3-phenylpiperidin-1-ium Bromide], the inhibition at 10 µM at NaV1.7 [1] is under 40%.
Turning to `COC(=O)c1cccc(C)c1NC(=O)C[n+]1cccc(-c2ccccc2)c1` [Compound 66A, 1-(2-((2-(methoxycarbonyl)-6-methylphenyl)amino)-2-oxoethyl)-3-phenylpyridin-1-ium Bromide], the inhibition at 30 µM on NaV1.7 [1] was in the range of 40 to 70%.
Turning to `COC(=O)c1cccc(C)c1NC(=O)C[N+]1(Cc2ccccc2)CCCCCC1` [Compound 1A, 1-benzyl-1-(2-((2-(methoxycarbonyl)-6-methylphenyl)amino)-2-oxoethyl)azepan-1-ium Bromide], at NaV1.7 [1], the inhibition at 3 µM was under 40%.
For the compound `CCOC(=O)C1CCC[N+](CC(=O)Nc2c(C)cccc2C(=O)OC)(Cc2ccccc2)C1` (stereo not shown) [Compound 16A], the inhibition at 30 µM on NaV1.7 [1] lay in the range of 40 to 70%.
Regarding `COC(=O)c1cccc(C)c1NC(=O)C[N+]1(Cc2ccccc2)CCCCC1` [Compound 3A], the inhibition at 100 µM at NaV1.7 [1] lay in the range of 40 to 70%.
Consider `COC(=O)c1cccc(C)c1NC(=O)C[N+]1(CC(N)=O)CCCC(c2ccccc2)C1` (stereo not shown) [Compound 61A], for which, on NaV1.7 [1], the inhibition at 100 µM was in the range of 40 to 70%.
For the compound `CC[N+]1(CC(=O)Nc2c(C)cccc2C(=O)OC)CCCC(c2ccccc2)C1` (stereo not shown) [Compound 65A], at NaV1.7 [1], the inhibition at 10 µM lay within 40 to 70%.
Regarding `CCNC(=O)C1CCC[N+](CC)(CC(=O)Nc2c(C)cccc2C(=O)OC)C1.O=C[O-]` (stereo not shown) [Compound 49], in data set [2], the “PAMPA (10^−6 cm/s)” value is listed as “+ (<0.1 10^−6 cm/s)”. Also, the “NaV1.7 Intracellular Inhibition” value at NaV1.7 [3] was “+ (<30%)”.
Take `CCOC(=O)c1cccc(C)c1NC(=O)C[N+]1(Cc2ccccc2)CCCCC1` [Compound 4A]: the inhibition at 3 µM on NaV1.7 [1] was under 40%.

The term inhibition denotes the drop in the measured response relative to a control, in per cent.
